# Laboratory results from US20150209315A1 (Cumberland Pharmaceuticals, priority 2009, published 2015).
# “And” between values parts separate entries of the source, which are not always exact repeats. Equal entries are not always repeated.
# Assays:
# [1] = test system: patients undergoing orthopedic surgical procedures; experiment: Example 3: additional measurements of efficacy; type: in vivo, human; details: 800 mg
# Description: Additional measurements of efficacy were incidence of treatment failure, time to GI motility, time to resumption of ambulation, time to resumption of liquid intake, time to resumption of solid diet, and length of hospital stay.
# [2] = test system: post-operative adult patients; experiment: Example 2: morphine use in the 24 hours following abdominal hysterectomy surgery; type: in vivo, human; details: 800 mg; for Morphine Requirement, Mean (SD) / Morphine Requirement, Median: 24 hours following surgery; for Transformed Morphine Requirement, LSMeans (SE) / Transformed Morphine Requirement, Max / Transformed Morphine Requirement, Mean (SD) / Transformed Morphine Requirement, Median / Transformed Morphine Requirement, Min: Box Cox transformation
# Procedure: To be eligible for this study, the patients met the following inclusion criteria: 1) scheduled for elective abdominal hysterectomy surgery with anticipated need for post-operative I.V. morphine analgesia with anticipated use of greater than 24 hours; 2) adequate IV access; and 3) anticipated hospital stay greater than 24 hours. The study exclusion criteria required patients only between the ages of 18 and 70 years old. […] Efficacy was measured by comparing the reduction in morphine use over the 24 hours immediately post surgery. Efficacy was measured by reduction in the requirement for the narcotic analgesic, morphine, in the 24 hours post surgery.
# The Clinical Trial Material (“CTM”) was mixed in 250 mL normal saline. Saline was chosen as the control group (placebo) for this study, to ensure blinding and allow for analysis of treatment effect.
# By protocol, patients were to be dosed every six hours for five doses, then as necessary (PRN) for pain every six hours for up to five days post surgery. However, after 24 hours through day 5, CTM had to be discontinued if there was a requirement for narcotic pain medication other than morphine or non-narcotic medications including the use of another NSAID. Further, after 24 hours through day 5, CTM may have been discontinued if there was resolution of pain, no IV access or discharge from the hospital.
# The study participants were randomized based on criteria for an efficacy evaluable population (EEP) versus an intent to treat population (ITT). […] The intent-to-treat population (ITT) consists of AT patients who received at least one post-surgical dose of CTM or at least one dose of morphine for break-through pain. The efficacy evaluable population (EEP) consists of all ITT patients who received each of the first five doses of CTM within 60 minutes of the scheduled time and who have the 6-hour and 28-hour VAS with movement assessments.
# Eligible patients were randomized to one of the two treatment groups. All patients were able (but were not required) to receive morphine until approximately 45 minutes before the end of the surgical procedure. After that time, only fentanyl was allowed until the end of the operation. […] Upon discharge from the operating room, patients had access to morphine (approximately 1-2 mg q 5 minutes) upon patient request or delivered by patient-controlled analgesia (PCA). […] Upon discharge from the operating room, patients had access to 1 mg morphine every 5 minutes upon request or by patient-controlled analgesia (PCA). […] Patients given non-morphine analgesics were classified as treatment failures. Treatment failures were not replaced.
# Patients were evaluated and compared for morphine requirements between the active doses and placebo using analysis of variance and covariance procedures at an overall alpha level of 0.05. Secondary efficacy parameters were also evaluated and compared among the treatment groups using appropriate statistical methods described in the statistical analysis section of the protocol. Safety information was compared between the treatment groups using Chi-Square or Cochran-Mantel-Haenszel test. Demographic, background and baseline information among the treatment groups was also described.
# The primary endpoint for the study was reduction in the requirement for morphine use in the 24 hours following surgery as measured by total morphine usage compared to placebo. Analysis of variance and covariance procedures were used to compare the reduction in the requirement for morphine use in the 24 hours following surgery among the treatment groups. Dunnet's test was used as a multiple comparison test to compare active dose groups with the placebo group at an overall alpha level of 0.05. In the primary model, center was introduced as a covariate.
compound,measurement,setting,value
"CC(C)Cc1ccc(C(C)C(=O)O)cc1 (stereo not shown) [Ibuprofen, 2-(4-isobutylphenyl) propionic acid]","treatment failure, time to GI motility, ambulation, liquid intake, solid diet, length of hospital stay vs placebo",[1],no significant differences between treatment groups
same,"Morphine Requirement, Max",[2]; Efficacy Evaluable,143.3 mg
same,"Morphine Requirement, Min",[2]; Efficacy Evaluable,4.0 mg
same,"Morphine Requirement, Mean (SD)",[2]; Efficacy Evaluable,45.5 mg and 45.5 (24.6) mg
same,"Morphine Requirement, Median",[2]; Efficacy Evaluable,42.0 mg
same,"Transformed Morphine Requirement, LSMeans (SE)",[2]; Efficacy Evaluable,10.8 (0.3) mg
same,"Transformed Morphine Requirement, Max",[2]; Efficacy Evaluable,21.2 mg
same,"Transformed Morphine Requirement, Mean (SD)",[2]; Efficacy Evaluable,10.7 (3.5) mg
same,"Transformed Morphine Requirement, Median",[2]; Efficacy Evaluable,10.7 mg
same,"Transformed Morphine Requirement, Min",[2]; Efficacy Evaluable,2.0 mg
same,"Morphine Requirement, Max",[2]; Intent-to-Treat,143.3 mg
same,"Morphine Requirement, Min",[2]; Intent-to-Treat,4.0 mg
same,"Morphine Requirement, Mean (SD)",[2]; Intent-to-Treat,47.3 mg and 47.3 (25.6) mg
same,"Morphine Requirement, Median",[2]; Intent-to-Treat,43.5 mg
same,"Transformed Morphine Requirement, LSMeans (SE)",[2]; Intent-to-Treat,12.1 (0.4) mg
same,"Transformed Morphine Requirement, Max",[2]; Intent-to-Treat,23.5 mg
same,"Transformed Morphine Requirement, Mean (SD)",[2]; Intent-to-Treat,11.8 (4.0) mg
same,"Transformed Morphine Requirement, Median",[2]; Intent-to-Treat,11.8 mg
same,"Transformed Morphine Requirement, Min",[2]; Intent-to-Treat,2.0 mg
